Each block holds one compound with its values, some of them ahead of it.
Assays:
A2AAR = conditions: read-out: A2AAR Ki; cited from earlier work
MAO-B = conditions: read-out: MAO-B IC50; cited from earlier work
human recombinant MAO-B = molecular target: T1, human recombinant MAO-B (Homo sapiens, UniProt P27338); experiment: MAO-B enzyme assay; assay type: biochemical; conditions: Triton X-100, 0.01%; colloidal aggregation control
T1 sequence (P27338 1-520): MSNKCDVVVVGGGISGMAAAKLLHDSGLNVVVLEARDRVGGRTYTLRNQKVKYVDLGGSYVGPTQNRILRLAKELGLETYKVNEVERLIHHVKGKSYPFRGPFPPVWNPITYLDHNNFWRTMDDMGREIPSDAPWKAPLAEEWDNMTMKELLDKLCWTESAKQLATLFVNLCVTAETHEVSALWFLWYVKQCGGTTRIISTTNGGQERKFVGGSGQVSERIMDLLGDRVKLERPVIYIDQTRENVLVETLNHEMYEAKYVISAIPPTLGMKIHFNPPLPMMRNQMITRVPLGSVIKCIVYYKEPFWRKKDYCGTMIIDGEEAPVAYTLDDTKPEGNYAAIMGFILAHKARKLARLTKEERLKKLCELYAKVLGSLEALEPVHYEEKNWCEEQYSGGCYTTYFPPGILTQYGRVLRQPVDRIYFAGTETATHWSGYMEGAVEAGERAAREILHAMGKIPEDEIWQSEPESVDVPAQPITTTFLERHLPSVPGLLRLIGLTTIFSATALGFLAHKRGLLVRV

[1] = molecular target: A2A adenosine receptor (A2AAR) (Homo sapiens, UniProt P29274); experiment: A2AAR competition binding; conditions: for better A2AAR binding affinity than compound 1: relative to compound 1
human A2A receptors = human A2A receptors (Homo sapiens, UniProt P29274); experiment: Functional cAMP accumulation assay with NECA; assay type: cell-based; conditions: response to agonist NECA in presence of compound; CHO cells
[2] = tested on: differentiated dopaminergic neuronal-like SH-SY5Y cells; experiment: Cell viability; assay type: cell-based, human; conditions: 20 µM 6-OHDA, 24 h; resazurin

A2A adenosine receptor (A2AAR), sequence (P29274 whole entry): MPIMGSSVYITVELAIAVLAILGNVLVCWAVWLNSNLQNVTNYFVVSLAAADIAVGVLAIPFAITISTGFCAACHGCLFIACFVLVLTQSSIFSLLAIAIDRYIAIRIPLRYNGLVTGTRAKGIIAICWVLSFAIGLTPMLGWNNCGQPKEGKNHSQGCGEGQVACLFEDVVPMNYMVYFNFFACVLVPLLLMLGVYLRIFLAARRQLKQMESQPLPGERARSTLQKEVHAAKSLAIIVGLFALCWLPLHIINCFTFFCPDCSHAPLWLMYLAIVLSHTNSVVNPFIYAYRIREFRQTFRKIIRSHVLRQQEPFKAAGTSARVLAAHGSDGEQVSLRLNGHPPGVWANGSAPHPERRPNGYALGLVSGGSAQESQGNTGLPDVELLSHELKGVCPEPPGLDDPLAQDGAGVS
human A2A receptors, sequence (P29274 whole entry): as above

- change in MAO-B IC50 values in the presence of detergent (human recombinant MAO-B): no significant changes
SMILES: O=C(Nc1nc2ccccc2[nH]1)c1ccccc1 [Compound 1]

- change in MAO-B IC50 values in the presence of detergent (human recombinant MAO-B): no significant changes
SMILES: Cc1ccc(COC(=O)c2nn(-c3ccccc3)nc2N)cc1 [Compound 3a]

- activity at the A2AAR (in words) [1]: inactive
SMILES: Nc1nn(-c2ccccc2)nc1C(=O)O [Compound 3j]

The next lines start with the compound.

SMILES: Cn1c(=O)c2c(nc(/C=C/c3cccc(Cl)c3)n2C)n(C)c1=O [CSC, 8-(3-chlorostyryl)caffeine]
- Ki (A2AAR): 38 nM
- IC50 (MAO-B): 18 nM

SMILES: O=C(Nc1nc2cccc(Cl)c2[nH]1)c1ccccc1 [Compound 1a]
- better A2AAR binding affinity than compound 1 [1]: 27 fold
- efficacy at the A2AAR in cAMP accumulation assay (human A2A receptors): antagonists

SMILES: COc1cccc2nc(NC(=O)c3ccccc3)[nH]c12 [Compound 1b]
- better A2AAR binding affinity than compound 1 [1]: 5 fold

SMILES: COc1cccc(COC(=O)c2nn(-c3ccccc3)nc2N)c1 [Compound 3]
- efficacy at the A2AAR in cAMP accumulation assay (human A2A receptors): antagonists

SMILES: COc1cccc(CO)c1 [Compound 3k]
- activity at the A2AAR (in words) [1]: inactive

SMILES: NCCc1cc(O)c(O)cc1O [Compound 6-OHDA, 6-hydroxydopamine]
- reduction in cell viability [2]: 37 ± 1.3%
